# Experimental data: EP1718623B1, “COMPOUNDS AS INHIBITORS OF CELL PROLIFERATION AND VIRAL INFECTIONS” (4SC AG, priority 2004, dated 2005)
# Legend:
# Kv1.3 channels = target: T1, Kv1.3 channels (Mus musculus, UniProt P16390); test: Kv1.3 assay, whole-cell patch-clamp in stable transfected L929 cells; type: cell-based; details: c=20 µM; each compound tested on two different cells; steady-state current
# T1 construct: expressed in transfected cells; host or cells: L929 cells
# Experimental: The inhibition of Kv1.3 was measured in stable transfected cell lines expressing mouse Kv1.3 using the patch-clamp technique (Rauer H et al. J Biol Chem Vol.275, No. 2, 1201-1208, 2000), Rauer H Mol Pharmacol,50, 1625-1634, 1996, Rauer H et al. J Pharmacol, 127, 1065-1074, 1999).
# Stable transfected L929 cells with Kv1.3 channels were grown in DMEM (Glutamax-I) media with 10% FCS, geneticin 330 µg/ml under 10% CO2 atmosphere.
# Whole-cell patch-clamp configuration, with an external bath solution of 160 mM NaCl, 4,5 mM KCl, 1 mM MgCl, 2 mM CaCl2,5 mM HEPES, 10 mM EGTA and NaOH adjusted to pH 7. 4. Internal pipette solution for recording was 155 mM KF, 2 mM MgCl2 , 10 mM HEPES, 10 mM EGTA with KOH adjusted to pH 7.2. Currents were activated by a 200-ms voltage step from a holding potential of -80 to 40 mV every 30 s. Holding potential -80 mV.
# Each compound was tested on two different cells. The cell was perfused with external bath solution (black line), then the compound was applied (c=20 µM). The resulting stedy-state current traces are shown as red lines. Example 3, 5, 6, 7, 8 are blockers.
# T-lymphocyte = details: inhibits T-lymphocyte proliferation; Kath JC et al. 1997; cited from earlier work
# Kv1.3 = Kv1.3 (Homo sapiens, UniProt P22001); details: blocks Kv1.3 currents; Kath JC et al. 1997; cited from earlier work
# Sequence of Kv1.3 (P22001 whole entry): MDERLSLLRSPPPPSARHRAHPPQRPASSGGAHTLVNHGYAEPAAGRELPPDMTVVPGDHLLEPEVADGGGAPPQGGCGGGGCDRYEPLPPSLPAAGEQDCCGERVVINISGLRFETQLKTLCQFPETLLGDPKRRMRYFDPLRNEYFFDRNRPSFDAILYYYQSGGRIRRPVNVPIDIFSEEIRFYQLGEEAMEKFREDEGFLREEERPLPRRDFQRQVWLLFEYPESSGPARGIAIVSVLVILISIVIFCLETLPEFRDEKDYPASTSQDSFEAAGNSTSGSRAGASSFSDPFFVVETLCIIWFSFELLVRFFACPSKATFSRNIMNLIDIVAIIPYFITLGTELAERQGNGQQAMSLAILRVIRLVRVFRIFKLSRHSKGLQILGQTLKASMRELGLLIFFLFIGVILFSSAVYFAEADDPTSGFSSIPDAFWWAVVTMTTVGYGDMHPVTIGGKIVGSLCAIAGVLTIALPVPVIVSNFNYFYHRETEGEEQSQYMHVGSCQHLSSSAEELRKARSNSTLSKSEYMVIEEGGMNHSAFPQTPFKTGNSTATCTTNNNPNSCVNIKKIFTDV
# [1] = test system: peripheral blood monocyte (PBMC); test: T Lymphocyte Proliferation Assay (PHA-stimulated PBMC, BrdU incorporation ELISA); type: cell-based; details: Homo sapiens, PBMCs stimulated with 2 µg/ml phytohemoagglutinin, 72 h
# Experimental: We used a nonradioactive technique for the measurement of in vitro T-cell proliferation (Messele T et al. Clinical and Diagnostic Laboratory Immunology,687-692,2002).
# Peripheral blood mononuclear cells (PBMCs) were isolated from human blood obtained from volunteer donators. PBMCs were isolated by centrifugation in ACCUSPIN tubes using HISTOPAQUE.
# PBMCs were stimulated with PHA and cell proliferation was measured with a Roche colorimetric BromUridin incorporation ELISA kit.
# Inhibition of stimulated peripheral blood monocyte (PBMC) stimulation
# PBMCs were isolated from the blood of healthy volunteers with the help of ACCUSPIN™ System Histopaque®-1077 tubes, washed and resuspended with 10^6 cells/ml in Dulbecco's modified eagles medium, containing 10 % fetal calf serum and 2 mM Glutamine.
# The cells were stimulated with 2 µg/ml phytohemoagglutinin in the presence of test compound or blank vehicle for 72 h. 4 h prior to the end of the incubation period, 5-bromo-2'-desoxyuridine (BrdU) was added to label the proliferating cells. After the incubation, the cells were separated by centrifugation and the culture supernatant removed. Incorporated BrdU was quantified with the help of an enzyme-linked immunosorbent assay.
# For the determination of the IC50 values (concentration of inhibitor required for 50% inhibition) at least four different inhibitor concentrations were applied. […]
# 20S proteasome = target: T2, 20S proteasome (Homo sapiens, UniProt P28074); test: Proteasome assay (chymotryptic activity, Suc-LLVT-AMC substrate); type: biochemical; details: 30°C, 20 min
# T2 construct: purchased Immatics, Tübingen
# Source text: Regulation of the immune response is controlled by a variety of signalling pathways such as T-cell or TNF receptor signalling (Chen G et al. Scienc,296 1634-1640,2002). To further characterize targets of compounds which we found active in the T-cell proliferation assay, we tested the compounds on a variety of targets involved in such pathways. Compounds described here are inhibitors of T-lymphocyte proliferation were active on three molecular targets: Kv1.3 ion channels and Inosine Monophosphate Dehydrogenase (IMPDH) and the human proteasome. The compounds described may act on one of these targets specifically or on several targets simultaneously.
# The chymotryptic activity of the 20S proteasome (Immatics, Tübingen) was determined using a Tecan Ultra plate reader and Suc-LLVT-AMC as substrate (Bachem). […]
# T1 sequence (P16390 whole entry): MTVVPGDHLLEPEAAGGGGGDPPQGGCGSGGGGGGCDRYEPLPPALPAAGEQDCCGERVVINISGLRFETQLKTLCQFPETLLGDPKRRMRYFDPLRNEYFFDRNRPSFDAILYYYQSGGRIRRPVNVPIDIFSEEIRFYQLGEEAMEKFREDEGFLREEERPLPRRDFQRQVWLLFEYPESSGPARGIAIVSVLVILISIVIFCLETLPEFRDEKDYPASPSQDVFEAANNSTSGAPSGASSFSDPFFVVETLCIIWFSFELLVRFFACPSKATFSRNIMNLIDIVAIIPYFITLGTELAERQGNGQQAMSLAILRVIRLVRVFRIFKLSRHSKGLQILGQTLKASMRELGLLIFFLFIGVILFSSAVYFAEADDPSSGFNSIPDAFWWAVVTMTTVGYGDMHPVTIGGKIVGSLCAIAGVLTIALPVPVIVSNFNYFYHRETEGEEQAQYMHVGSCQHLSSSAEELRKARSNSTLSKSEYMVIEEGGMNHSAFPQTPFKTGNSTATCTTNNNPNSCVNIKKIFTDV
compound,measurement,setting,value
"O=C(Nc1ccc(C2=N[C@H](Cc3ccccc3)CO2)cc1)Nc1ccc(S(=O)(=O)NCc2cc(F)c(F)c(F)c2)cc1 [Example 3, 4-{3-[4-(4-(R)-Benzyl-4,5-dihydro-oxazol-2-yl)-phenyl]- -ureido}-N-(3,4,5-trifluorobenzyl)-benzenesulfonamide]",Kv1.3 block,Kv1.3 channels,blockers
"noxiustoxin (TIINVKCTSPKQCSKPCKELYGSSAGAKCMNGKCKCYNN; UniProt P08815 1-39, looked up)",IC50,T-lymphocyte,8 nM
same,IC50,Kv1.3,0.2 nM
"O=C(Nc1ccc(C2=N[C@H](c3ccccc3)CO2)cc1)Nc1ccc(S(=O)(=O)NCc2cc(F)c(F)c(F)c2)cc1 [Example 1, 4-{3-[4-(4-(R)-Phenyl-4,5-dihydro-oxazol-2-yl)-phenyl]-ureido}-N-(3,4,5-trifluorobenzyl)-benzenesulfonamide]",IC50,[1],< 5000 nM
same,IC50,20S proteasome,< 5000 nM
"O=C(Nc1ccc(S(=O)(=O)NCc2cc(F)c(F)c(F)c2)cc1)Nc1cccc(C2=N[C@@H](Cc3ccccc3)CO2)c1 [Example 22, 4-{3-[3-(4-(S)-Benzyl-4,5-dihydro-oxazol-2-yl)-phenyl]-ureido}-N-(3,4,5-trifluorobenzyl)-benzenesulfonamide]",IC50,[1],< 5000 nM
